{
  "source": "the NIST ThermoML archive (doi:10.1021/acs.jced.8b00425)",
  "key": {"[1]": {"details": "Crystal; DSC"}, "[2]": {"experiment": "Molar enthalpy of transition or fusion", "details": "Crystal; DSC"}},
  "note": "Numbers after ± are expanded uncertainties.",
  "data": [
    {"smiles": "O=c1[nH]cc(F)c(=O)[nH]1", "note": "[5-fluoro-2,4(1H,3H)-pyrimidinedione]", "values": [
      {"measurement": "Triple point temperature", "setting": "[1]", "result": "555.66 ± 0.88", "unit": "K"},
      {"measurement": "Molar enthalpy of transition or fusion", "setting": "[2]", "result": "6.88 ± 0.177", "unit": "kcal/mol"}
    ]}
  ]
}
